# Measurements: US20050261164A1, “Remedy for urinary frequency and urinary incontinence” (FUJISAWA PHARMACEUTICAL CO., LTD., priority 2002, published 2005)
# Where a name gives a salt, the structure may show the parent alone.
# System: rhythmic bladder contraction, male SD rats
# Experiment: rhythmic bladder contraction model of a rat (frequent urination model)
# Assay type: in vivo
# Conditions: urethane-anesthetized male SD rats, intravenous, 0 to 10 minutes after the administration
# Experimental: Male SD rats (7 to 10 weeks old, Japan SLC) were anesthetized with urethane (1 to 1.2 g/kg, intraperitoneal administration) and their lower abdomen were opened along the midline. After performing a small dissection at the apex of the bladder, a cannula (Hibiki, size 5) attached with a balloon of about 1 ml volume was inserted into the bladder. A cannula for drug administration (PE50, Becton Dickinson) was inserted into the femoral vein. The cannula for measuring intravesical pressure was connected to a pressure transducer attached with a three-way cock and water was injected into the balloon from a free opening of the three-way cock to cause rhythmic bladder contraction. The intravesical pressure at that time was recorded by a thermal recorder (Recti-Horiz8K, NEC Sanei) via an amplifier (AP-601G, Nihon Kohden). The bladder contractile frequency and force were measured every 10 minutes before the administration of a test compound and for 0 to 10 and 10 to 20 minutes after the administration. Statistical analysis was performed using randomized block analysis of variance and Dunnett's multiple comparison with respect to the measurement values obtained before the administration.
Molecule,effect on bladder contractile force (3.2 mg/kg),"bladder contractile frequency, % of the value obtained before the administration (3.2 mg/kg, p<0.01)",effect on bladder contractile force (1 mg/kg),"bladder contractile frequency, % of the value obtained before the administration (1 mg/kg, p<0.05)"
"CC(C)c1ccc(C(=O)NC(=N)N)cc1S(C)(=O)=O.CS(=O)(=O)O [test compound 1, 4-isopropyl-3-methylsulfonylbenzoyl guanidine methanesulfonate]",without significantly affecting,25%,–,–
"CN(C)CCNC(=O)c1cc(C(=O)N=C(N)N)cc(-c2cc(Cl)sc2Cl)c1 [test compound 2, [5-(2,5-dichlorothiophene-3-yl)-3-[(2-dimethylaminoethyl)carbamoyl]benzoyl]guanidine dihydrochloride]",–,–,without significantly affecting,22%
"(2,3-dihydro-9-methanesulfonyl-1-benzoxepin-4-carbonyl)guanidine dihydrochloride [test compound 3]",–,–,without significantly affecting,41%
